IC50 and GI50 data for eight compounds are collected here from patent publication US12006314B2, “Anti-cancer nuclear hormone receptor-targeting compounds” (Nuvation Bio Inc., priority 2021, dated 2024).

The target of assay [1] is T1, AR (cytosol from LnCaP cells) (Homo sapiens, UniProt P10275, T878A).
T1 construct: endogenous in cells; host or cells: LNCaP cytosol
T1 sequence (P10275 1-920 T878A): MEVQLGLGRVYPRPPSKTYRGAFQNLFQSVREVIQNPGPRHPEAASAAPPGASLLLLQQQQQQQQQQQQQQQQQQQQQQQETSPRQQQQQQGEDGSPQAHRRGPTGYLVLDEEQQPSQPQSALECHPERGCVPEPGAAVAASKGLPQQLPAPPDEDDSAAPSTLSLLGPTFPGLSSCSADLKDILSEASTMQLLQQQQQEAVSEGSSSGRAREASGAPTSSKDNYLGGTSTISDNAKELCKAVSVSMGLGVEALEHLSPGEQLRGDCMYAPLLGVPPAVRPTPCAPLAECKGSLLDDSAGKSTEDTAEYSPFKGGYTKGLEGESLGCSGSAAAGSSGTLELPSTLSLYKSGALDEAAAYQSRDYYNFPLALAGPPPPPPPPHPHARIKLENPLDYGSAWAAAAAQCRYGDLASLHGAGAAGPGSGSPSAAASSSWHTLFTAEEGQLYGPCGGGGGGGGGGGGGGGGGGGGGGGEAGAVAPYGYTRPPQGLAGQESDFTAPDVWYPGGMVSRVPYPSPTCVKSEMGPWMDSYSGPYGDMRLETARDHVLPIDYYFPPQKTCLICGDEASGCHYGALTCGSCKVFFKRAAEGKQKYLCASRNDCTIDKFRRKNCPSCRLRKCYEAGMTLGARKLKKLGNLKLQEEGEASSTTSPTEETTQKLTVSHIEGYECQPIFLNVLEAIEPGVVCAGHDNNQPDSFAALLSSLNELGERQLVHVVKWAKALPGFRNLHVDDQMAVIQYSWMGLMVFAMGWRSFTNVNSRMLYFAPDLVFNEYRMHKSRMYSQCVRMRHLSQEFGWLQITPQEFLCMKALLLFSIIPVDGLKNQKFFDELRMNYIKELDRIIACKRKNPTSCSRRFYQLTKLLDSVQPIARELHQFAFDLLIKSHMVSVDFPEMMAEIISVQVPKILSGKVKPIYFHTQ
The experiment in a line: AR binding assay. The conditions noted are these: 3H-R1881 1 nM, 4° C. 24 hrs. On the procedure:
AR binding assay: To assess AR binding, test compound (top dose 10 μM, 4 fold serial dilution, 8 point dose response) and control (progesterone) were transferred to the assay plate. Cytosol from LnCaP cells was added to the plate, followed by addition of radiolabeled ^3H-R1881 at a final concentration of 1 nM. The plate was sealed, and the reaction was incubated at 300 rpm at 4° C. for 24 hrs. Radioligand absorption buffer (10 mM Tris-HCl, pH 7.4; 1.5 mM EDTA; 1 mM DTT; 0.25% charcoal; 0.0025% dextran) was then added to the plate, mixed, and incubated at 4° C. for 15 minutes. The plate was then centrifuged at 3000 rpm for 30 minutes at 4° C. The supernatant was transferred to the scint-tube and Tri-carb was used for scintillation counting.

Assay [2] deals with T2, full-length androgen receptor (HEK293 cells stably expressing) (Homo sapiens, UniProt P10275).
T2 construct: HEK293 cells stably expressing the full-length androgen receptor were seeded; expressed in transfected cells
T2 sequence (P10275 1-920): T1 sequence (P10275 1-920 T878A) with A878T
The experiment in a line: AR antagonism assay. The class given is cell-based. The conditions noted are these: testosterone 1 nM, 20 h, Steady-glo. As for the experimental part:
AR antagonism assay: To evaluate AR antagonist activity, test compound was added to the assay plate (top dose 10 μM, 3 fold serial dilution, 10 point dose response). HEK293 cells stably expressing the full-length androgen receptor were seeded at a density of 20000 cells/well in the assay plate. The assay plate was then incubated at room temperature for 10 minutes and at 37° C., 5% CO2 for 20 minutes. Testosterone is added to the assay plate at 1 nM final concentration and the assay plate incubated at 37° C., 5% CO2 for 20 h. After the incubation period, Steady-glo was added to the assay plate and mixed at room temperature for 20 minutes on an orbital shaker, before reading out on the EnVision plate reader.

The test system of the next assay is LNCap cells. The experiment in a line: Cell viability assay LNCap. Format: cell-based. To be noted: Homo sapiens, 144 h, 6 days, CellTiterGlo. On the procedure: (§1) Cell viability assay: LNCap, 22Rv1, MCF7, MDAMB361, T47D, and IEC6 cells were seeded at a density of 500-2000 cells/well in 96 well plates, and a ‘T0’ (timepoint 0) was included along with the assay plate. The plates were then incubated at 37° C., 5% CO2 in a cell culture incubator overnight. On the next day, the ‘T0’ plate was assayed using CellTiterGlo (Promega, Inc) according to the manufacturer's instructions. The appropriate compounds were diluted in DMSO and added to the assay plate (final DMSO concentration of 0.1-0.2%) on the next day. The assay plates were incubated for 6 days at 37° C., 5% CO2. After the incubation period, the plates were assayed using CellTiterGlo (Promega, Inc) according to the manufacturer's instructions and luminescence was read on the EnVision plate reader. Inhibition of the tested compounds was determined by the following formula: Inhibition rate (%)=(1−(RLU compound−RLU day0)/(RLU control−RLU day0))*100%. GraphPadPrism was used to analyze the data and determine GI50/IC50 values.
(In ATP-based viability assays light output follows the ATP content of the culture.)

The test system of the next assay is 22Rv1 cells. The experiment in a line: Cell viability assay 22Rv1. Format: cell-based. The conditions noted are these: Homo sapiens, 22Rv1, 144 h; 6 days, CellTiterGlo. On the procedure:
as §1

For another assay, the system named is IEC6 cells. The experiment in a line: Cell viability assay IEC6. The class given is cell-based. To be noted: Rattus norvegicus, IEC-6, 144 h; 6 days, CellTiterGlo. As for the experimental part: as §1

Changes are numbered by the printed parent chain.

In general, IC50 refers to the midpoint of a concentration-inhibition curve. A lower IC50 goes with greater potency. For orientation: GI50 means the concentration at which growth is held to half of that of the control. Lower therefore signals greater sensitivity of the cells. With `CCc1cc2ncc(CN3CCN(c4ccc(C(=O)N5CCN(CC6CCN(c7ccc(C(=O)N[C@H]8CC[C@H](Oc9ccc(C#N)c(Cl)c9)CC8)nn7)CC6)CC5)nc4)CC3)cc2[nH]c1=O` [Compound 59, N-((1r,4r)-4-(3-Chloro-4-cyanophenoxy)cyclohexyl)-6-(4-((4-(5-(4-((7-ethyl-6-oxo-5,6-dihydro-1,5-naphthyridin-3-yl)methyl)piperazin-1-yl)picolinoyl)piperazin-1-yl)methyl)piperidin-1-yl)pyridazine-3-carboxamide], the IC50 in assay [1] was below 0.1 µM; in assay [2], above 10 µM; in the assay with IEC6 cells, above 30 µM. Further, the GI50 in the assay with LNCap cells and with 22Rv1 cells was 0.5 to 5 µM each time.

`CCc1cc2ncc(CN3CCN(C[C@H]4CC[C@H](COc5cc(F)c([C@@H]6c7[nH]c8ccccc8c7C[C@@H](C)N6CC(C)(C)F)c(F)c5)CC4)CC3)cc2[nH]c1=O` [Compound 75, 7-((4-(((1R,4r)-4-((3,5-Difluoro-4-((1R,3R)-2-(2-fluoro-2-methylpropyl)-3-methyl-2,3,4,9-tetrahydro-1H-pyrido[3,4-b]indol-1-yl)phenoxy)methyl)cyclohexyl)methyl)piperazin-1-yl)methyl)-3-ethyl-1,5-naphthyridin-2(1H)-one]: in the assay with IEC6 cells, the IC50 is 5 to 30 µM.

For the compound `CCc1cc2ncc(CN3CCN(c4ccc(-c5nnc([C@H]6[C@H](C)OC(=O)N6c6ccc(C#N)c(Cl)c6)o5)cc4)CC3)cc2[nH]c1=O` [Compound 65, 2-Chloro-4-((4R,5S)-4-(5-(4-(4-((7-ethyl-6-oxo-5,6-dihydro-1,5-naphthyridin-3-yl)methyl)-piperazin-1-yl)phenyl)-1,3,4-oxadiazol-2-yl)-5-methyl-2-oxooxazolidin-3-yl)benzonitrile], the IC50 in assay [1] is above 10 µM; in assay [2] it was above 10 µM; in the assay with IEC6 cells it was above 30 µM. Further, the figures for the GI50 in the assay on LNCap cells and in the assay on 22Rv1 cells were 5 to 30 µM and above 30 µM, respectively.

Consider `CCc1cc2ncc(CN3CCN(CC4CCN(c5ccc(C(=O)N[C@H]6CC[C@H](Oc7ccc(C#N)c(Cl)c7C)CC6)nn5)CC4)CC3)cc2[nH]c1=O` [Compound 66, N-((1r,4r)-4-(3-Chloro-4-cyano-2-methylphenoxy)cyclohexyl)-6-(4-((4-((7-ethyl-6-oxo-5,6-dihydro-1,5-naphthyridin-3-yl)methyl)piperazin-1-yl)methyl)piperidin-1-yl)pyridazine-3-carboxamide], for which the figures for the IC50 (in assay [1]; in assay [2]; with IEC6 cells) were below 0.1 µM, above 10 µM and 0.5 to 5 µM, respectively. For the same compound, the GI50 with LNCap cells and with 22Rv1 cells was at most 0.5 µM in each case.

Regarding `CCc1cc2ncc(CN3CCN(Cc4ccc(-c5nnc([C@H](Nc6ccc(C#N)c(Cl)c6)[C@H](C)O)o5)cc4)CC3)cc2[nH]c1=O` [Compound 68, 2-Chloro-4-(((1R,2S)-1-(5-(4-((4-((7-ethyl-6-oxo-5,6-dihydro-1,5-naphthyridin-3-yl)methyl)piperazin-1-yl)methyl)phenyl)-1,3,4-oxadiazol-2-yl)-2-hydroxypropyl)amino)benzonitrile], the IC50 was above 10 µM in assay [1], above 10 µM in assay [2] and above 30 µM with IEC6 cells. Besides, the results for the GI50 in the assay on LNCap cells and in the assay on 22Rv1 cells were 0.5 to 5 µM and 5 to 30 µM, respectively.

In the case of `CCc1cc2ncc(CN3CCN(c4ccc(C(=O)N5CCN(C(=O)C6CCN(c7ccc(C(=O)N[C@H]8CC[C@H](Oc9ccc(C#N)c(Cl)c9)CC8)nn7)CC6)CC5)nc4)CC3)cc2[nH]c1=O` [Compound 60, N-((1r,4r)-4-(3-Chloro-4-cyanophenoxy)cyclohexyl)-6-(4-(4-(5-(4-((7-ethyl-6-oxo-5,6-dihydro-1,5-naphthyridin-3-yl)methyl)piperazin-1-yl)picolinoyl)piperazine-1-carbonyl)piperidin-1-yl)pyridazine-3-carboxamide], the IC50 in assay [1] was below 0.1 µM; in assay [2] it was above 10 µM; in the assay with IEC6 cells, above 30 µM. In addition, the GI50 in the assay with LNCap cells and in the assay with 22Rv1 cells was 0.5 to 5 µM throughout.

Regarding `CCc1cc2ncc(CN3CCN(c4ccc(-c5nnc([C@H](Nc6ccc(C#N)c(Cl)c6C)[C@H](C)O)o5)cc4)CC3)cc2[nH]c1=O` [Compound 64, 2-Chloro-4-(((1R,2S)-1-(5-(4-(4-((7-ethyl-6-oxo-5,6-dihydro-1,5-naphthyridin-3-yl)methyl)piperazin-1-yl)phenyl)-1,3,4-oxadiazol-2-yl)-2-hydroxypropyl)amino)-3-methyl Benzonitrile], the results for the concentration for half-maximal inhibition (IC50) (in assay [1]; in assay [2]; in the assay on IEC6 cells) were 1 to 10 µM, above 10 µM and 0.5 to 5 µM, respectively. Also, the GI50 with LNCap cells fell in the range of 0.5 to 5 µM; in the assay on 22Rv1 cells, 5 to 30 µM.

For `CCc1cc2ncc(CN3CCN(Cc4ccc(-c5nnc([C@H](Nc6ccc(C#N)c(Cl)c6C)[C@H](C)O)o5)cc4)CC3)cc2[nH]c1=O` [Compound 69, 2-Chloro-4-(((1R,2S)-1-(5-(4-((4-((7-ethyl-6-oxo-5,6-dihydro-1,5-naphthyridin-3-yl)methyl)piperazin-1-yl)methyl)phenyl)-1,3,4-oxadiazol-2-yl)-2-hydroxypropyl)amino)-3-methylbenzonitrile], the figures for the IC50 (in assay [1]; in assay [2]; with IEC6 cells) were above 10 µM, above 10 µM and above 30 µM, respectively. Besides, the GI50 in the assay on LNCap cells lay in the range of 0.5 to 5 µM; in the assay with 22Rv1 cells, 5 to 30 µM.
